According to US20230357189A1, “MODIFIED FLUOROQUINOLONES AND USES THEREOF” (Technion Research & Development Foundation Limited, priority 2021, published 2023):
Values after ≈ are worked out from the molar mass of the structure shown.

Columns and labels:
[1] = system: Escherichia coli R477-100; assay: Antibacterial activity, MIC by double-microdilution method; format: cell-based; details: for Gram-negative MIC a: Table 2, without DTT; for Gram-negative MIC a / Gram-negative MIC, DTT 10 mM / Gram-negative MIC, DTT 0 mM / Gram-negative MIC, DTT 2 mM: Escherichia coli R477-100; for improvement of MIC in the presence of DTT: 10 mM DTT vs without DTT, Gram-negative E. coli R477-100; for Gram-negative MIC, DTT 0 mM / Gram-negative MIC, DTT 2 mM: Table 3
Escherichia coli 25922 = assay: as above; format: cell-based; details: Table 2; Escherichia coli 25922
[2] = system: Staphylococcus Epidermidis; assay: as above; format: cell-based; details: Table 2
Bacillus Subtilis = assay: as above; format: cell-based; details: Bacillus Subtilis; for Gram-positive MIC d: Table 2; for Gram-positive MIC, DTT 0 mM / Gram-positive MIC, DTT 2 mM / Gram-positive MIC, DTT 10 mM: Table 3
[3] = system: supercoiled (+) pHOT-1 plasmid DNA; assay: DNA cleavage assay (gel electrophoresis); format: biochemical; details: for DNase activity (cleavage of supercoiled plasmid, form I to form II): absence of adjuvants, HEPES buffer (50 mM, pH 7.4), 5 hours
Description: Removal of Ligands Prior to Electrophoresis was performed when more than 100 μM of Cu(II)-ligand or Co(III) ligand (at any concentration) complexes were employed that is, for DNA cleavage assays that were performed in the absence of any adjuvants. An Amberlyst® 15 (Sigma Aldrich) ion-exchange resin was prepared according to the reported literature [Hettich et al. J. Am. Chem. Soc. 1997, 119 (24), 5638-5647] and stored at −20° C. Before use, 0.5 gram of the exchanger was mixed with 250 μL of water. After stopping the DNA-cleavage reaction by addition of EDTA (54 mM, 15 minutes incubation at 37° C.), 10 μL of the exchanger suspension was added, vortexed, and incubated at 37° C. for 15 minutes before centrifugation and electrophoresis.
DNA cleavage activity of the tested Complexes towards supercoiled (+) pHOT-1 plasmid DNA (TopoGEN) was monitored by gel electrophoresis. In a typical experiment, plasmid DNA (200 ng, […]) in HEPES buffer (50 mM, pH 7.4) was mixed with different concentrations of a tested metal complex in the presence or absence of ascorbic acid (0.32 mM). All stock solutions of buffers and of the metal complexes were prepared using HPLC grade water (ChromAR®). Molecular biology reagent grade water (Sigma) was added up to a total reaction volume of 30 μL before incubation for a given time. For the ascorbic acid assays, the reaction was quenched immediately after incubation with EDTA (54 mM). For analysis, 10 μL of loading buffer (40% sucrose, 100 mM Tris-HCl (pH 7.5), 1 mM EDTA, 0.5 mg·mL^−1 bromophenol blue) was added to the incubated solution and loaded onto an agarose (SeaKem LE) gel [1% in TAE×1 buffer (40 mM Tris, 20 mM acetic acid, 1 mM EDTA)]. Electrophoresis was carried out at 60 V for 2 hours. Gels were stained with 1 μg·mL^−1 ethidium bromide for 30 minutes and de-stained in TAE×1 buffer. DNA bands were visualized with medium-range ultraviolet light using Bio-Rad Gel Doc XR+ imaging system. The quantity of different DNA forms (I or II) was estimated using ImageJ software.
Chem. 2015, 2015 (28), 4722-4730; Kashiba-Iwatsuki et al. FEBS Lett. 1996, 389 (2), 149-15].
The copper complex of compound 2 (2-Cu(II)) was used as the positive control in these assays.

SMILES | Gram-negative MIC a [1] [µg/mL] | Gram-negative MIC b (Escherichia coli 25922) [µg/mL] | Gram-positive MIC c [2] [µg/mL] | Gram-positive MIC d (Bacillus Subtilis) [µg/mL] | DNase activity (cleavage of supercoiled plasmid, form I to form II) [3] | DNase activity at micromolar concentrations ([3]; FIG. 32: 0.2 μg DNA over 2 hours (Co(III)-cyclen, 4-Co(III)), 0.6 μg DNA over 10 hours (23-Co(III))) | improvement of MIC in the presence of DTT [1] | Gram-negative MIC, DTT 10 mM [1] [µg/mL] | Gram-negative MIC, DTT 0 mM [1] [µg/mL] | Gram-negative MIC, DTT 2 mM [1] [µg/mL] | Gram-positive MIC, DTT 0 mM (Bacillus Subtilis) [µg/mL] | Gram-positive MIC, DTT 2 mM (Bacillus Subtilis) [µg/mL] | Gram-positive MIC, DTT 10 mM (Bacillus Subtilis) [µg/mL] | MIC ([1]; E. coli R477-100, metal-free compound) [µg/mL]
O.O=C(O)c1cn(C2CC2)c2cc(N3CCN(CCCCCCN4CCNCCNCCNCC4)CC3)c(F)cc2c1=O.[Co+3].[OH-] [1-Co(III)] | 12 | 12 | 24 | 12 |  |  |  |  |  |  |  |  |  | 
O.O=C(O)c1cn(C2CC2)c2cc(N3CCN(CCCCCCCN4CCNCCNCCNCC4)CC3)c(F)cc2c1=O.[Co+3].[OH-] [2-Co(III)] | 12 | 6 | 24 | 12 to 24 |  |  |  |  |  |  |  |  |  | 
O.O=C(O)c1cn(C2CC2)c2cc(N3CCN(CCCCCCCCN4CCNCCNCCNCC4)CC3)c(F)cc2c1=O.[Co+3].[OH-] [3-Co(III)] | 12 | 6 | 12 to 24 | 12 |  |  |  |  |  |  |  |  |  | 
O.O=C(O)c1cn(C2CC2)c2cc(N3CCN(CCCCCCCCN4CCNCCNCCNCC4)CC3)c(F)cc2c1=O.[Cu+2] [3-Cu(II)] | 12 | 6 | 6 | 6 | only very limited activity |  |  |  |  |  |  |  |  | 
O.O=C(O)c1cn(C2CC2)c2cc(N3CCN(Cc4ccc(CN5CCNCCNCCNCC5)cc4)CC3)c(F)cc2c1=O.[Co+3].[OH-] [4-Co(III)] | 12 | 6 | 6 | 6 |  | strong DNA binding but no DNase activity |  |  |  |  |  |  |  | 
NCCN1CCNCCNCCN(Cc2ccc(CN3CCN(c4cc5c(cc4F)c(=O)c(C(=O)[O-])cn5C4CC4)CC3)cc2)CC1.[Cu+2] [23-Cu(II)] | 24 | 24 | 12 | 12 | significant hydrolytic DNase activity |  | significant improvement in antibacterial activity | 3 | 24 | 6 | 12 | 6 | 3 | 
O=C(O)c1cn(C2CC2)c2cc(N3CCN(CCCCCCCCN4CCNCCNCCNCC4)CC3)c(F)cc2c1=O [Compound 3] | 24 to 48 | 12 | 6 | 6 |  |  |  |  |  |  |  |  |  | 
N=C(N)NCCN1CCNCCNCCN(Cc2ccc(CN3CCN(c4cc5c(cc4F)c(=O)c(C(=O)O)cn5C4CC4)CC3)cc2)CC1 [Compound 19] | 12 | 12 | 6 | 6 | significant DNase activity |  |  | 12 | 12 | 12 | 6 | 6 to 12 | 6 | 
N=C(N)NCCN1CCNCCNCCN(CCc2ccc(CN3CCN(c4cc5c(cc4F)c(=O)c(C(=O)O)cn5C4CC4)CC3)cc2)CC1 [Compound 20] | 24 | 24 | 24 | 12 |  |  |  | 24 | 24 | 12 | 12 | 6 to 12 | 12 | 
N=C(N)NCCN1CCNCCNCCN(CCCc2ccc(CN3CCN(c4cc5c(cc4F)c(=O)c(C(=O)O)cn5C4CC4)CC3)cc2)CC1 [Compound 21] | 12 | 12 | 6 | 6 |  |  |  | 6 | 12 | 6 | 12 | 12 | 6 | 
NCCN1CCNCCNCCN(Cc2ccc(CN3CCN(c4cc5c(cc4F)c(=O)c(C(=O)O)cn5C4CC4)CC3)cc2)CC1 [Compound 23] | 24 | 24 | 12 | 6 | significant DNase activity |  |  | 12 | 24 | 12 | 6 | 6 | 3 | 24 (≈ 37 µM)
NCCN1CCNCCNCCN(CCCCc2ccc(CN3CCN(c4cc5c(cc4F)c(=O)c(C(=O)O)cn5C4CC4)CC3)cc2)CC1 [Compound 26] | 12 | 12 | 6 | 6 |  |  |  | 12 | 12 | 6 | 6 | 6 | 6 | 
[Cl][Cu][Cl] [CuCl2, reference compound] | >384 | >384 | >384 | >384 |  |  | no change whatsoever |  |  |  |  |  |  | 
